The target in data set [1] is EP2 (Homo sapiens, UniProt P43116). The experiment in a line: Radioligand binding, EP2 ([3H]-PGE2). Particulars: cloned human receptor; mean of two determinations. On the set-up: purchased MDS Pharma (Taiwan) and CEREP (France), contract assays. The procedure:
(§1) Additional (non-IP) receptor binding assays were carried out by MDS Pharma (Taiwan) and CEREP (France).

The target in data set [2] is T1, IP (Homo sapiens, UniProt P43119). The experiment in a line: Recombinant human IP receptor cAMP assay after elimination of receptor reserve (transient CHO). The format is cell-based. On the set-up: expressed in transfected cells. Particulars: following elimination of receptor reserve. The text has this:
Additional In Vitro Assays
To determine the potency and efficacy of compounds in cAMP assays in the absence of receptor reserve effects, the cDNA sequence of the human IP receptor was subqcloned into an expression plasmid containing a ubiquitin promoter in place of the more commonly used CMV promoter. The ubiquitin […]
level of receptor expression after transfection into a suitable cell line. This plasmid was transiently transfected into CHO cells using lipofectamine, following standard protocols. The quantity of transfected plasmid DNA was titrated down from 16 µg to 1 ng per transfection using empty vector as carrier DNA.

For data set [3], the system named is 95 GPCR profile. The experiment in a line: Wider binding screen (95 GPCR profile, MDS Pharma). The conditions noted are these: 95 GPCR profile (MDS Pharma Inc.). The text has this:
[15] 95 GPCR profile (MDS Pharma Inc.).

Data set [4] has as its target CYP 2C9 (Homo sapiens, UniProt P11712). The experiment in a line: Cytochrome P450 inhibition, CYP2C9. The format is in vitro ADME.
The target in data set [5] is CYP 2D6 (Homo sapiens, UniProt P10635). The experiment in a line: Cytochrome P450 inhibition, CYP2D6. The format is in vitro ADME.
Data set [6] can be described thus: Stability in human microsome preparations. The format is in vitro ADME. The conditions noted are these: incubation at 37 °C, human microsomes; read-out: human MS, T1/2. The text has this:
(§2) Table 1 Screening Data for Selected Analogues ^a | column: human and rat MS, T1/2 (min) ^g

Data set [7] concerns the target CYP 1A2 (Homo sapiens, UniProt P05177). Nature of the data set: Cytochrome P450 inhibition, CYP1A2. The format is in vitro ADME.
Data set [8] concerns the target T2, EP1 (Homo sapiens, UniProt P34995).
T2 sequence (P34995 1-402): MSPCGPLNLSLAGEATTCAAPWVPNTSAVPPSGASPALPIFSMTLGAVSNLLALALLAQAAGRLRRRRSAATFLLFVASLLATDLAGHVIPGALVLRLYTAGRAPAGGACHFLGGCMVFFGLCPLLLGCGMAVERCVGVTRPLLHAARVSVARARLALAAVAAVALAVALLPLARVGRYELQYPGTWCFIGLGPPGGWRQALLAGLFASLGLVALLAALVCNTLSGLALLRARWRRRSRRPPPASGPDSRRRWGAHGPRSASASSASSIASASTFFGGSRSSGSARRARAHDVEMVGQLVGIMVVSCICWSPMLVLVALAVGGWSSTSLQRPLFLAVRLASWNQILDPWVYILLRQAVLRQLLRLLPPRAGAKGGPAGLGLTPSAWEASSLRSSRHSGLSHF
Nature of the data set: cAMP HTRF agonist assay, EP1. The format is cell-based. The text has this: Table Sup2: Data with some comparator compounds in functional assays.
Compound DP1 EP1 EP2 EP3v6 EP4
EC50, µµµµM (% I.A) EC50, µµµµM (% I.A) EC50, µµµµM (% I.A) EC50, µµµµM (% I.A) EC50, µµµµM (% I.A)
n = 3 n = 2 n = 8 n = 6 n = 6 […]

The target of data set [9] is CYP 2C8 (Homo sapiens, UniProt P10632). Nature of the data set: Cytochrome P450 inhibition, CYP2C8. The format is in vitro ADME.
In data set [10] the target is CYP 2C19 (Homo sapiens, UniProt P33261). The experiment in a line: Cytochrome P450 inhibition, CYP2C19. The format is in vitro ADME.
A short description of data set [11]: Stability in rat microsome preparations. The format is in vitro ADME. The conditions noted are these: incubation at 37 °C, rat microsomes; read-out: rat MS, T1/2.
Source text: as §2

For data set [12], the target named is hERG channel (Homo sapiens, UniProt Q12809). The experiment in a line: hERG patch clamp assay. The conditions noted are these: read-out: IC50 hERG channel functional activity. The format is cell-based. In general terms: Block of hERG is tested as a sign of cardiac risk.
Data set [13] in a line: Plasma protein binding. The format is in vitro ADME. The conditions noted are these: across all species.
Data set [14] in a line: Metabolite profile of 5c in the rat. The format is in vivo. The conditions noted are these: in vivo following dosing of 5g. An excerpt:
A taurine-conjugated metabolite was subsequently identified in bile (M1, Figure 4), which was also observed in circulating plasma, although at much lower concentrations (∼5%) compared to parent. Further, two oxidized products, one of which was also a taurine-conjugate, were identified (M2 and M3) in plasma. […] It is known that taurine can be conjugated to bile acids and these conjugates may be hydrolyzed in the gut which allows for bile acid reabsorbtion.[19]

For data set [15], the system named is human platelet. Nature of the data set: Inhibition of ADP-induced human platelet aggregation. The format is cell-based. The conditions noted are these: aggregation induced by 2.5 μM ADP, mean of at least two determinations. The procedure: Such aggregated and activated platelets produce vasoactive substances such as thromboxane and serotonin that may cause harmful vasoconstriction and vascular remodeling.[13] […] This secondary assay was carried out as previously described,[14] with aggregation induced by 2.5 μM ADP in the presence or absence of IP receptor agonists.

In data set [16] the target is EP4 (Homo sapiens, UniProt P35408). Nature of the data set: Radioligand binding, EP4 ([3H]-PGE2). Particulars: cloned human receptor; mean of two determinations. On the set-up: purchased MDS Pharma (Taiwan) and CEREP (France), contract assays. Here is the method: as §1
The target in data set [17] is T1, IP. The experiment in a line: Radioligand binding, human IP ([3H]-iloprost). Particulars: cloned human receptor; read-out: Ki IP ([3H]-iloprost). On the set-up: expressed in transfected cells; host or cells: CHO-K1 (crude membranes). Here is the method: CHO-K1 cells expressing recombinant IP receptors were harvested, washed with ice-cold phosphate buffered saline, pH 7.4 (PBS), and then centrifuged at 48 000g for 20 min at 4 °C. The resulting cell pellet was then resuspended in ice-cold PBS containing 20 mM HEPES, pH 7.4, and 0.1 mM EDTA, homogenized on ice using a Brinkman Polytron, and centrifuged (48 000g for 20 min at 4 °C). This resuspension and centrifugation process was repeated one further time. Crude membrane pellets were stored at −80 °C until used for radioligand binding assays.
Assay incubations were terminated by rapid filtration through PerkinElmer GF/C filtration plates pretreated with 0.3% PEI, under vacuum pressure using a 96-well Packard filtration apparatus, followed by multiple washes with ice-cold wash buffer (PBS containing 20 mM HEPES and 0.1 mM EDTA, pH 7.4). Plates were then dried at 45 °C for a minimum of 2 h. Finally, 25 μL of BetaScint scintillation cocktail was added to each well and plates were counted in a Packard TopCount scintillation counter. In each competition study, test compounds were dosed at 10 concentrations with triplicate determinations at each test concentration.

Where [18] appears, read: read-out: plasma protein binding.

Where two headings read alike, the source gives them in different places.

T1 sequence (P43119 whole entry): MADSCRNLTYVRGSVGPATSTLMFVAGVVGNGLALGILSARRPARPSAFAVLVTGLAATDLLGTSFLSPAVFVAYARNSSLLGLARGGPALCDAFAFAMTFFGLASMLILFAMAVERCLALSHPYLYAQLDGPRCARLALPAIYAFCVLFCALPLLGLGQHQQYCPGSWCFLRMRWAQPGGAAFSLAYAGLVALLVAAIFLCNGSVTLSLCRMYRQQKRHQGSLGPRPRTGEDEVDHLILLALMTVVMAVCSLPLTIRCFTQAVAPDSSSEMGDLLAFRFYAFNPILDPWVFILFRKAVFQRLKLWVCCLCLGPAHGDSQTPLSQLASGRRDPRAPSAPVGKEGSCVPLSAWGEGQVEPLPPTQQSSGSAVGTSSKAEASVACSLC
Sequence of hERG channel (Q12809 whole entry): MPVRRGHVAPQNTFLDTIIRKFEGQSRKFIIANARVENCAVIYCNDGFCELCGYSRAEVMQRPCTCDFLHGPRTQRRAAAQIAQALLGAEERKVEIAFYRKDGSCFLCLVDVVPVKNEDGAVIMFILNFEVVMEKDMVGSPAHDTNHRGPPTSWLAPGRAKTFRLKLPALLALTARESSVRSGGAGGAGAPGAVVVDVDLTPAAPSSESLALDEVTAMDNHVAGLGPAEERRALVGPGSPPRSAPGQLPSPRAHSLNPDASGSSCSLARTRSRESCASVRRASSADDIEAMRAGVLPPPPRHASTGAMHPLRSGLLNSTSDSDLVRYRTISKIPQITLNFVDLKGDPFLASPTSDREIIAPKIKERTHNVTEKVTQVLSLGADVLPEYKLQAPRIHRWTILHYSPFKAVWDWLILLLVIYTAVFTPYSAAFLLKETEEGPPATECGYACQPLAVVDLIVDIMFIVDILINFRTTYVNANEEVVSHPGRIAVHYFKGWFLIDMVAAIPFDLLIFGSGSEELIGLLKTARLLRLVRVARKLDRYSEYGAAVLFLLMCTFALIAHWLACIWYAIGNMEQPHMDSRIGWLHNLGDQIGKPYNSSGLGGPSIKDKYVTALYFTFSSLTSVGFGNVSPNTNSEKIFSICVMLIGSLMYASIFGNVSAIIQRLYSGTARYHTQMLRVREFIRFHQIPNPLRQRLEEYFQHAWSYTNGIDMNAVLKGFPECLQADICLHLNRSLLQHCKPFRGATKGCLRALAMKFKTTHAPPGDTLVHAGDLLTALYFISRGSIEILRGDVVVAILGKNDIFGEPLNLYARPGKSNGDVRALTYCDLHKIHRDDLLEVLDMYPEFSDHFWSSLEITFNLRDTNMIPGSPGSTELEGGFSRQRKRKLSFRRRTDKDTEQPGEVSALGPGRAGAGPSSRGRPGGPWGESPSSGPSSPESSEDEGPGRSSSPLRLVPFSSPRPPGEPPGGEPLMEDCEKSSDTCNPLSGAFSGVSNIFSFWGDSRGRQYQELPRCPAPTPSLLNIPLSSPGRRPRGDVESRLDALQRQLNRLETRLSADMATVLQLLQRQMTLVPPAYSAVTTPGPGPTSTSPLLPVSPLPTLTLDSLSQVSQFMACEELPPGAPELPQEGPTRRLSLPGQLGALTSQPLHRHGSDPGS
Sequence of EP2 (P43116 whole entry): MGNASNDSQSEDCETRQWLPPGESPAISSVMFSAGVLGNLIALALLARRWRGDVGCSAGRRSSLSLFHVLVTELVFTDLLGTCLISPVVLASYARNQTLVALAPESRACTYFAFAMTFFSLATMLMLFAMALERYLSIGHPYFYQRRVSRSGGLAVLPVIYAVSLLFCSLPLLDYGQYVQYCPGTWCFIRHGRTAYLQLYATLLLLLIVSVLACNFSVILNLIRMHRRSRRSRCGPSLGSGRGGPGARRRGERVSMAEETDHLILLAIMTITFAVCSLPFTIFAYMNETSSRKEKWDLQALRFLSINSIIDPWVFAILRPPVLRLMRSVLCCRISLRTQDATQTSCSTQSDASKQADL
Sequence of CYP 2C19 (P33261 whole entry): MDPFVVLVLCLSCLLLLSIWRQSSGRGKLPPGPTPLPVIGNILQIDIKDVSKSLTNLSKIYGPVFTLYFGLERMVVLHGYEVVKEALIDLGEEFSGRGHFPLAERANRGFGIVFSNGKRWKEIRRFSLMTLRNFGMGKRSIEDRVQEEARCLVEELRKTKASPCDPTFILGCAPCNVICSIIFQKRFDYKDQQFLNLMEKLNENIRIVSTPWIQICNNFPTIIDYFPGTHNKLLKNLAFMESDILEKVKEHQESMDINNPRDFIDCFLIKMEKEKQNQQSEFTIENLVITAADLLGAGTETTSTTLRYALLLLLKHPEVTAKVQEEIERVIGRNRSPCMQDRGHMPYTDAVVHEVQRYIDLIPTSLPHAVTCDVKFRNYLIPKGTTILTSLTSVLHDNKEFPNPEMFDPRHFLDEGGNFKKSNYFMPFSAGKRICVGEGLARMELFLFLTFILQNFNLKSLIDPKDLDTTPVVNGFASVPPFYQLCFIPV
Sequence of CYP 2D6 (P10635 whole entry): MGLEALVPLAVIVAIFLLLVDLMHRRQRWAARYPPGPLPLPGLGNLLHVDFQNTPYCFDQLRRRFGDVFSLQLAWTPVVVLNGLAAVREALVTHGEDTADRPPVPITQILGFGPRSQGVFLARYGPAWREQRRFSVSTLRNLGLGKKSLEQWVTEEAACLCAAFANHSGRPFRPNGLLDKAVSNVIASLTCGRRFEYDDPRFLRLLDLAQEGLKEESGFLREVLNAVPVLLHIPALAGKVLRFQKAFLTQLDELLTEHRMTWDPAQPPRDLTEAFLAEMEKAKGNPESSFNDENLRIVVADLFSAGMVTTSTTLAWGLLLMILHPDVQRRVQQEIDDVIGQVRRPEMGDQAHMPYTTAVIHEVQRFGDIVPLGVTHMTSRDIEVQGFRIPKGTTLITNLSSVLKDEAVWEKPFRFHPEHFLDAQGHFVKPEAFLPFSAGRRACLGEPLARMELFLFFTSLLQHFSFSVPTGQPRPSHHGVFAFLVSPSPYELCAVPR
Sequence of CYP 1A2 (P05177 whole entry): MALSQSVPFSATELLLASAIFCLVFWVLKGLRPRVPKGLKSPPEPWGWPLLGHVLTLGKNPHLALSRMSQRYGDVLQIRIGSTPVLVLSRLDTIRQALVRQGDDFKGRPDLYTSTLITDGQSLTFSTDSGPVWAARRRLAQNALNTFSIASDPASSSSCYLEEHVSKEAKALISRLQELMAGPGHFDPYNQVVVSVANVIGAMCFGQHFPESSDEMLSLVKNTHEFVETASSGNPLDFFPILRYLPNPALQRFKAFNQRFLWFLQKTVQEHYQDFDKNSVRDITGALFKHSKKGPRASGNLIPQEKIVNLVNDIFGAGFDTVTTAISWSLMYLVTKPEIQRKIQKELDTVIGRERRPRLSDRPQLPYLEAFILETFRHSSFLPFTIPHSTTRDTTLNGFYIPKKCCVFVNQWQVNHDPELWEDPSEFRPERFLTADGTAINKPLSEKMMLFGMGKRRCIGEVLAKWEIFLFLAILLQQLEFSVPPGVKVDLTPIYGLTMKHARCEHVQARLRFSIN
Sequence of CYP 2C8 (P10632 whole entry): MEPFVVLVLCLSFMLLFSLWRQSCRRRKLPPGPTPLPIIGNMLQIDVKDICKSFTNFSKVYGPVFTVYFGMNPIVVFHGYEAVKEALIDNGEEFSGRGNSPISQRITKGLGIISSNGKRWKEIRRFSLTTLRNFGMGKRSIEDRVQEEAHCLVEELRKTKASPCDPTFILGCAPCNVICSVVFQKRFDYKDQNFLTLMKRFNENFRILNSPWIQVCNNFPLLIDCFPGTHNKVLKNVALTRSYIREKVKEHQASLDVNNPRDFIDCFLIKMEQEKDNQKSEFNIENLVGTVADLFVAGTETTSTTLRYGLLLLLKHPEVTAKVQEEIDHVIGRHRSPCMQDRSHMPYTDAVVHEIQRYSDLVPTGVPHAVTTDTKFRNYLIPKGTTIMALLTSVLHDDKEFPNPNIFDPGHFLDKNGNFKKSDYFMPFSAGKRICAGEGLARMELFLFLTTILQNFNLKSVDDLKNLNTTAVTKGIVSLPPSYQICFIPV
Sequence of CYP 2C9 (P11712 whole entry): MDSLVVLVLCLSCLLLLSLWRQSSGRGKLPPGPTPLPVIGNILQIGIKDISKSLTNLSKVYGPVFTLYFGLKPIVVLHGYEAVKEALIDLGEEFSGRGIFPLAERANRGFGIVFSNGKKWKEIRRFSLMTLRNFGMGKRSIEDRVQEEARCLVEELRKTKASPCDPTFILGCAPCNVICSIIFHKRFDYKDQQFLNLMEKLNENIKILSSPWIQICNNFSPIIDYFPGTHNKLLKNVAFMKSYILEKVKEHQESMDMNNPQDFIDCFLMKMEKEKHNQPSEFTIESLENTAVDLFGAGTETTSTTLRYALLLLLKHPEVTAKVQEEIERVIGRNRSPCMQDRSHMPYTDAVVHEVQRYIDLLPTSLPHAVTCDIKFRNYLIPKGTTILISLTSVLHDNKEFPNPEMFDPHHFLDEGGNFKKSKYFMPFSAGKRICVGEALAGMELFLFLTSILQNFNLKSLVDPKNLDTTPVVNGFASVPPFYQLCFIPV
Sequence of EP4 (P35408 whole entry): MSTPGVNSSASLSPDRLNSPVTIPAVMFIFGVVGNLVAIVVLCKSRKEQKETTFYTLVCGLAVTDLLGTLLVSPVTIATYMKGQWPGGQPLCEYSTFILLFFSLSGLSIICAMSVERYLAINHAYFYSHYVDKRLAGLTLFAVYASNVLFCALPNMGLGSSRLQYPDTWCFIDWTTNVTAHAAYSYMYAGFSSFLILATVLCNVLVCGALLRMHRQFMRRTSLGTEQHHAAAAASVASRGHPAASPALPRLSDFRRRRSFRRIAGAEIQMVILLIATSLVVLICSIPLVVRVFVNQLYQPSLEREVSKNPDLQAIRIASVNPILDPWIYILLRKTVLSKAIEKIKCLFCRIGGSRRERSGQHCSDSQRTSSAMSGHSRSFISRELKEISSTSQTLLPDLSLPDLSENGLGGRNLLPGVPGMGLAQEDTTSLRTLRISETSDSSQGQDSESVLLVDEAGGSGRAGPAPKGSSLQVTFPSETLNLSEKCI

Consider `O=C(O)COC[C@H]1CC[C@H](COC(=O)N(c2ccccc2)c2ccc(Cl)cc2)CC1` [5c, Sodium 2-(((1r,4r)-4-(((4-Chlorophenyl)(phenyl)carbamoyloxy)methyl)cyclohexyl)methoxy)acetate], for which, in [1], the affinity, expressed as Ki, was 610 nM. Besides, the “Efficacy (% vs. Iloprost) [95% CI], recombinant IP receptor cAMP” value in data set [2] is 67 [64, 71] %. In data set [3], the “off-target liabilities in a wider screen” value was “no additional off-target liabilities were observed”. Further, the IC50 – broadly, the concentration needed to halve the response being measured – in data set [4] was over 50 µM; in data set [5], over 50 µM; in data set [7], over 50 µM; in data set [9], over 50 µM; in [10], over 50 µM; in data set [12] it was over 30 µM. Besides, the half-life in data set [6] and in [11] was over 60 min each time. Also, the EC50 (usually the concentration needed to bring the measured effect to its halfway point) in [8] was over 10000 nM. Besides, the fraction unbound is 0.01 in data set [13] (read-out: free fraction) and about 0.01 in data set [13] (setting [18]).
For the molecule `O=C(O)COC[C@H]1CC[C@H](COC(=O)N(c2ccccc2)c2cccc(F)c2)CC1` [5g, 2-(((1r,4r)-4-(((3-Fluorophenyl)(phenyl)carbamoyloxy)methyl)cyclohexyl)methoxy)acetic Acid], the Ki (commonly the equilibrium dissociation constant of an inhibitor or competing ligand from its target) stood at 570 nM in [1], 1200 nM in data set [16] and 7 nM in data set [17]. Further, the “off-target liabilities in a wider screen” value in data set [3] was “no additional off-target liabilities were observed”. In addition, the IC50 in data set [4] was over 50 µM; in [15], 18 nM; in data set [5] it was over 50 µM; in data set [7] it was over 50 µM; in data set [9] it was over 50 µM; in [10], over 50 µM. Further, the IC50 in data set [12] was over 30 µM. The “taurine conjugate metabolite in vivo” value in [14] is recorded as “no analogous conjugate was observed”. The half-life in data set [6] and in [11] was over 60 min throughout. Besides, the fraction unbound is 0.01 in data set [13] (read-out: free fraction) and about 0.01 in [13] (setting [18]).
Turning to `CC#CCC(C)[C@H](O)/C=C/[C@@H]1[C@H]2C/C(=C/CCCC(=O)O)C[C@H]2C[C@H]1O` (stereo partly drawn) [iloprost], in data set [2], the “Efficacy (% vs. Iloprost) [95% CI], recombinant IP receptor cAMP” value amounted to 100%. In [8], the EC50 was found to be 47 nM and the “EP1 % I.A” value is listed as 48%.
